The results in this text go back to ChEMBL document CHEMBL4190368, “Synthesis and antimalarial evaluation of artesunate-polyamine and trioxolane-polyamine conjugates” (Eur J Med Chem, 2017).

Some results are limits rather than exact numbers.

Series [1] has as its system Plasmodium falciparum. The series can be described thus: Antiplasmodial activity against chloroquine sensitive Plasmodium falciparum NF54 assessed as reduction in [3H]-hypoxanthine incorporation incubated for 48 hrs by liquid scintillation counting method. In kind it is functional, organism-based.
The subject of series [2] is Plasmodium falciparum. In words: Antiplasmodial activity against chloroquine and pyrimethamine resistant Plasmodium falciparum K1 assessed as reduction in [3H]-hypoxanthine incorporation incubated for 48 hrs by liquid scintillation counting method. In kind it is functional, organism-based.
Another series deals with L6. In words: Cytotoxicity in rat L6 cells assessed as reduction in cell viability incubated for 72 hrs by alamar blue dye based assay. As to conditions: L6, 72 h. (In general: The colour change of resazurin is a common sign of viable cells or microbes.)
The nature of series [3]: Selectivity index, ratio of IC50 for rat L6 cells to IC50 for chloroquine and pyrimethamine resistant Plasmodium falciparum K1. In kind it is toxicity. The following applies: L6 cells versus Plasmodium falciparum K1, read-out: Ratio IC50.
Series [4] relates to Plasmodium berghei. In words: Antiplasmodial activity against GFP-transfected Plasmodium berghei ANKA infected in NMRI mouse assessed as mouse survival at 50 mg/kg/day, ip for 4 days measured up to 30 days. The format is functional.
For series [5], the system named is Plasmodium berghei. The series can be described thus: Antiplasmodial activity against GFP-transfected Plasmodium berghei ANKA infected in NMRI mouse assessed as reduction in parasitaemia at 50 mg/kg/day, ip for 4 days measured on 24 hrs after last dose by FACS analysis. The format is functional. More on the design: scale not given: the % may be the effect or the level left.

As to `CC(C)(C)OC(=O)N(CCCCCCCCN(CCCNC(=O)C1CCC2(CC1)OOC1(O2)C2CC3CC(C2)CC1C3)C(=O)OC(C)(C)C)CCCNC(=O)C1CCC2(CC1)OOC1(O2)C2CC3CC(C2)CC1C3` (stereo not given), the IC50 stood at 0.079 µM in the series on Plasmodium falciparum [1], 0.059 µM in the series on Plasmodium falciparum [2] and 57.6 µM in the series with L6. The selectivity ratio in series [3] worked out at 976.

Turning to `O=C(NCCCN(CCCCCCCCCCN(CCCNC(=O)C1CCC2(CC1)OOC1(O2)C2CC3CC(C2)CC1C3)C(=O)C1CCC2(CC1)OOC1(O2)C2CC3CC(C2)CC1C3)C(=O)C1CCC2(CC1)OOC1(O2)C2CC3CC(C2)CC1C3)C1CCC2(CC1)OOC1(O2)C2CC3CC(C2)CC1C3` (stereo not given), the IC50 in the series with Plasmodium falciparum [1] was 0.088 µM; in the series on Plasmodium falciparum [2], 0.03 µM; in the series with L6 it was greater than 69 µM. Moreover, the selectivity ratio in series [3] is greater than 2300.

Regarding `O=C(NCCCN(CCCCCCCCN(CCCNC(=O)C1CCC2(CC1)OOC1(O2)C2CC3CC(C2)CC1C3)C(=O)C1CCC2(CC1)OOC1(O2)C2CC3CC(C2)CC1C3)C(=O)C1CCC2(CC1)OOC1(O2)C2CC3CC(C2)CC1C3)C1CCC2(CC1)OOC1(O2)C2CC3CC(C2)CC1C3` (stereo not given), the IC50 in the series with Plasmodium falciparum [1] stood at 0.026 µM; in the series with Plasmodium falciparum [2], 0.011 µM; in the series on L6, 59.2 µM. In series [3], the selectivity ratio came to 5380.

In the case of `O=C(NCCCN(CCCCCCN(CCCNC(=O)C1CCC2(CC1)OOC1(O2)C2CC3CC(C2)CC1C3)C(=O)C1CCC2(CC1)OOC1(O2)C2CC3CC(C2)CC1C3)C(=O)C1CCC2(CC1)OOC1(O2)C2CC3CC(C2)CC1C3)C1CCC2(CC1)OOC1(O2)C2CC3CC(C2)CC1C3` (stereo not given), the figures for the half-maximal inhibitory concentration (IC50) in the series on Plasmodium falciparum [1], in the series on Plasmodium falciparum [2] and with L6 were 0.022 µM, 0.011 µM and 63.2 µM, respectively. The selectivity ratio in series [3] amounted to 5740.

Regarding `CC(C)(C)OC(=O)N(CCCCCCN(CCCNC(=O)C1CCC2(CC1)OOC1(O2)C2CC3CC(C2)CC1C3)C(=O)OC(C)(C)C)CCCNC(=O)C1CCC2(CC1)OOC1(O2)C2CC3CC(C2)CC1C3` (stereo not given), the IC50 with Plasmodium falciparum [1] stood at 0.021 µM; in the series with Plasmodium falciparum [2] it was 0.005 µM; in the series with L6 it was 59.2 µM. In addition, the Survival in the series with Plasmodium berghei [4] came out at 6.7 days. In the series on Plasmodium berghei [5], the Activity is listed as 79.4%. For the same compound, in series [3], the selectivity ratio was determined as 10800.

In the case of `CC(C)(C)OC(=O)N(CCCCN(CCCNC(=O)C1CCC2(CC1)OOC1(O2)C2CC3CC(C2)CC1C3)C(=O)OC(C)(C)C)CCCNC(=O)C1CCC2(CC1)OOC1(O2)C2CC3CC(C2)CC1C3` (stereo not given), the IC50 stood at 0.0051 µM in the series with Plasmodium falciparum [1], 0.0092 µM with Plasmodium falciparum [2] and 65.8 µM in the series with L6. In the series on Plasmodium berghei [4], the Survival was 9.3 days. In addition, the Activity with Plasmodium berghei [5] is reported as 96.4%. Further, the selectivity ratio in series [3] stood at 7160.

On to `C[C@H]1[C@H](OC(=O)CCC(=O)NCCCN(CCCCCCCCN(CCCNC(=O)CCC(=O)O[C@@H]2O[C@@H]3O[C@@]4(C)CC[C@H]5[C@H](C)CC[C@@H]([C@H]2C)[C@@]35OO4)C(=O)CCC(=O)O[C@@H]2O[C@@H]3O[C@@]4(C)CC[C@H]5[C@H](C)CC[C@@H]([C@H]2C)[C@@]35OO4)C(=O)CCC(=O)O[C@@H]2O[C@@H]3O[C@@]4(C)CC[C@H]5[C@H](C)CC[C@@H]([C@H]2C)[C@@]35OO4)O[C@@H]2O[C@@]3(C)CC[C@H]4[C@H](C)CC[C@@H]1[C@@]24OO3`, for which the IC50 came out at 0.0008 µM in the series with Plasmodium falciparum [1], 0.0006 µM with Plasmodium falciparum [2] and 0.9 µM in the series on L6. Moreover, in series [3], the selectivity ratio turned out to be 1500.

For the compound `CC(C)(C)OC(=O)N(CCCCCCCCCCN(CCCNC(=O)C1CCC2(CC1)OOC1(O2)C2CC3CC(C2)CC1C3)C(=O)OC(C)(C)C)CCCNC(=O)C1CCC2(CC1)OOC1(O2)C2CC3CC(C2)CC1C3` (stereo not given), the figures for the IC50 in the series on Plasmodium falciparum [1], in the series on Plasmodium falciparum [2] and in the series on L6 were 0.097 µM, 0.06 µM and 70.9 µM, respectively. In addition, the selectivity ratio in series [3] turned out to be 1180.

Take `C[C@H]1[C@H](OC(=O)CCC(=O)NCCCN(CCCCCCCCCCN(CCCNC(=O)CCC(=O)O[C@@H]2O[C@@H]3O[C@@]4(C)CC[C@H]5[C@H](C)CC[C@@H]([C@H]2C)[C@@]35OO4)C(=O)CCC(=O)O[C@@H]2O[C@@H]3O[C@@]4(C)CC[C@H]5[C@H](C)CC[C@@H]([C@H]2C)[C@@]35OO4)C(=O)CCC(=O)O[C@@H]2O[C@@H]3O[C@@]4(C)CC[C@H]5[C@H](C)CC[C@@H]([C@H]2C)[C@@]35OO4)O[C@@H]2O[C@@]3(C)CC[C@H]4[C@H](C)CC[C@@H]1[C@@]24OO3`: the IC50 with Plasmodium falciparum [1] stood at 0.0006 µM; in the series with Plasmodium falciparum [2], 0.0011 µM; with L6 it was 0.49 µM. Further, the selectivity ratio in series [3] was found to be 445.

For the compound `O=C(NCCCN(CCCCN(CCCNC(=O)C1CCC2(CC1)OOC1(O2)C2CC3CC(C2)CC1C3)C(=O)C1CCC2(CC1)OOC1(O2)C2CC3CC(C2)CC1C3)C(=O)C1CCC2(CC1)OOC1(O2)C2CC3CC(C2)CC1C3)C1CCC2(CC1)OOC1(O2)C2CC3CC(C2)CC1C3` (stereo not given), the results for the IC50 with Plasmodium falciparum [1], in the series on Plasmodium falciparum [2] and in the series with L6 were 0.098 µM, 0.0062 µM and 50.4 µM, respectively. The selectivity ratio in series [3] was 8130.

On to `C[C@H]1[C@H](OC(=O)CCC(=O)NCCCN(CCCCCCCCN(CCCNC(=O)CCC(=O)O[C@@H]2O[C@@H]3O[C@@]4(C)CC[C@H]5[C@H](C)CC[C@@H]([C@H]2C)[C@@]35OO4)C(=O)OC(C)(C)C)C(=O)OC(C)(C)C)O[C@@H]2O[C@@]3(C)CC[C@H]4[C@H](C)CC[C@@H]1[C@@]24OO3`, for which the results for the IC50 in the series with Plasmodium falciparum [1], with Plasmodium falciparum [2] and with L6 were 0.0007 µM, 0.0008 µM and 0.56 µM, respectively. Also, the selectivity ratio in series [3] turned out to be 700.

Take `C[C@H]1[C@H](OC(=O)CCC(=O)NCCCN(CCCCCCN(CCCNC(=O)CCC(=O)O[C@@H]2O[C@@H]3O[C@@]4(C)CC[C@H]5[C@H](C)CC[C@@H]([C@H]2C)[C@@]35OO4)C(=O)CCC(=O)O[C@@H]2O[C@@H]3O[C@@]4(C)CC[C@H]5[C@H](C)CC[C@@H]([C@H]2C)[C@@]35OO4)C(=O)CCC(=O)O[C@@H]2O[C@@H]3O[C@@]4(C)CC[C@H]5[C@H](C)CC[C@@H]([C@H]2C)[C@@]35OO4)O[C@@H]2O[C@@]3(C)CC[C@H]4[C@H](C)CC[C@@H]1[C@@]24OO3`: the IC50 in the series on Plasmodium falciparum [1] came out at 0.0006 µM; in the series with Plasmodium falciparum [2] it was 0.0006 µM; in the series on L6 it was 0.88 µM. Moreover, the selectivity ratio in series [3] worked out at 1470.

Turning to `O=C(O)C1CCC2(CC1)OOC1(O2)C2CC3CC(C2)CC1C3` (stereo not given), the IC50 in the series with Plasmodium falciparum [1] stood at 0.0065 µM; in the series with Plasmodium falciparum [2], 0.0028 µM; in the series with L6 it was 139 µM. The selectivity ratio in series [3] came out at 49600.

`C[C@H]1[C@H](OC(=O)CCC(=O)NCCCN(CCCCCCCN(CCCNC(=O)CCC(=O)O[C@@H]2O[C@@H]3O[C@@]4(C)CC[C@H]5[C@H](C)CC[C@@H]([C@H]2C)[C@@]35OO4)C(=O)OC(C)(C)C)C(=O)OC(C)(C)C)O[C@@H]2O[C@@]3(C)CC[C@H]4[C@H](C)CC[C@@H]1[C@@]24OO3`: the figures for the IC50 in the series on Plasmodium falciparum [1], in the series on Plasmodium falciparum [2] and with L6 were 0.0006 µM, 0.0008 µM and 0.97 µM, respectively. The selectivity ratio in series [3] was determined as 1210.

On to `C[C@H]1[C@H](OC(=O)CCC(=O)O)O[C@@H]2O[C@@]3(C)CC[C@H]4[C@H](C)CC[C@@H]1[C@@]24OO3` [ARTESUNATE], for which the IC50 in the series with Plasmodium falciparum [1] came out at 0.0026 µM; with Plasmodium falciparum [2], 0.0005 µM; in the series on L6 it was 6.63 µM. The selectivity ratio in series [3] turned out to be 13300.

`C[C@H]1[C@H](OC(=O)CCC(=O)NCCCN(CCCCCCCCCCN(CCCNC(=O)CCC(=O)O[C@@H]2O[C@@H]3O[C@@]4(C)CC[C@H]5[C@H](C)CC[C@@H]([C@H]2C)[C@@]35OO4)C(=O)OC(C)(C)C)C(=O)OC(C)(C)C)O[C@@H]2O[C@@]3(C)CC[C@H]4[C@H](C)CC[C@@H]1[C@@]24OO3`: the IC50 with Plasmodium falciparum [1] was found to be 0.0008 µM; with Plasmodium falciparum [2] it was 0.0008 µM; in the series on L6, 0.5 µM. The selectivity ratio in series [3] worked out at 625.

Take `C[C@H]1[C@H](OC(=O)CCC(=O)NCCCN(CCCCCCCN(CCCNC(=O)CCC(=O)O[C@@H]2O[C@@H]3O[C@@]4(C)CC[C@H]5[C@H](C)CC[C@@H]([C@H]2C)[C@@]35OO4)C(=O)CCC(=O)O[C@@H]2O[C@@H]3O[C@@]4(C)CC[C@H]5[C@H](C)CC[C@@H]([C@H]2C)[C@@]35OO4)C(=O)CCC(=O)O[C@@H]2O[C@@H]3O[C@@]4(C)CC[C@H]5[C@H](C)CC[C@@H]([C@H]2C)[C@@]35OO4)O[C@@H]2O[C@@]3(C)CC[C@H]4[C@H](C)CC[C@@H]1[C@@]24OO3`: the IC50 stood at 0.0008 µM in the series on Plasmodium falciparum [1], 0.0006 µM in the series on Plasmodium falciparum [2] and 1.24 µM in the series with L6. In addition, in series [3], the selectivity ratio stood at 2070.

Take `O=C(NCCCN(CCCCCCCN(CCCNC(=O)C1CCC2(CC1)OOC1(O2)C2CC3CC(C2)CC1C3)C(=O)C1CCC2(CC1)OOC1(O2)C2CC3CC(C2)CC1C3)C(=O)C1CCC2(CC1)OOC1(O2)C2CC3CC(C2)CC1C3)C1CCC2(CC1)OOC1(O2)C2CC3CC(C2)CC1C3` (stereo not given): the 50% inhibitory concentration (IC50) in the series with Plasmodium falciparum [1] was 0.287 µM; in the series on Plasmodium falciparum [2], 0.076 µM; in the series on L6, greater than 71 µM. In addition, the selectivity ratio in series [3] was greater than 934.

Take `C[C@H]1[C@H](OC(=O)CCC(=O)NCCCN(CCCCCCN(CCCNC(=O)CCC(=O)O[C@@H]2O[C@@H]3O[C@@]4(C)CC[C@H]5[C@H](C)CC[C@@H]([C@H]2C)[C@@]35OO4)C(=O)OC(C)(C)C)C(=O)OC(C)(C)C)O[C@@H]2O[C@@]3(C)CC[C@H]4[C@H](C)CC[C@@H]1[C@@]24OO3`: the IC50 in the series on Plasmodium falciparum [1] worked out at 0.0008 µM; with Plasmodium falciparum [2] it was 0.0009 µM; in the series with L6, 0.66 µM. Also, in series [3], the selectivity ratio was determined as 733.

In general, IC50 refers to the concentration that gives 50% inhibition.
